The text below walks through data of US7951782B2, “Composition effective to prevent or treat adult disease” (Maruha Nichiro Seafoods, Inc, priority 2005, dated 2011).

Residues, ends and D or L forms follow the SMILES beside them. No end group written: not given here.

Series [1] can be described thus: Solubility of synthesized polypeptides.
Method: Twenty-four polypeptides contained in the alcalase-digested, reverse phase column fraction of the basic fraction were synthesized in yields of 10 to 300 mg in the same manner as described in Example 7 and their characteristic values were determined.
The target of series [2] is T1, xanthine oxidase (XO) of cow's milk (Bos taurus, UniProt P80457).
T1 construct: xanthine oxidase (XO) of cow's milk (from Wako Pure Chemical); purchased Wako Pure Chemical; host or cells: cow's milk (natural source)
T1 sequence (P80457 whole entry): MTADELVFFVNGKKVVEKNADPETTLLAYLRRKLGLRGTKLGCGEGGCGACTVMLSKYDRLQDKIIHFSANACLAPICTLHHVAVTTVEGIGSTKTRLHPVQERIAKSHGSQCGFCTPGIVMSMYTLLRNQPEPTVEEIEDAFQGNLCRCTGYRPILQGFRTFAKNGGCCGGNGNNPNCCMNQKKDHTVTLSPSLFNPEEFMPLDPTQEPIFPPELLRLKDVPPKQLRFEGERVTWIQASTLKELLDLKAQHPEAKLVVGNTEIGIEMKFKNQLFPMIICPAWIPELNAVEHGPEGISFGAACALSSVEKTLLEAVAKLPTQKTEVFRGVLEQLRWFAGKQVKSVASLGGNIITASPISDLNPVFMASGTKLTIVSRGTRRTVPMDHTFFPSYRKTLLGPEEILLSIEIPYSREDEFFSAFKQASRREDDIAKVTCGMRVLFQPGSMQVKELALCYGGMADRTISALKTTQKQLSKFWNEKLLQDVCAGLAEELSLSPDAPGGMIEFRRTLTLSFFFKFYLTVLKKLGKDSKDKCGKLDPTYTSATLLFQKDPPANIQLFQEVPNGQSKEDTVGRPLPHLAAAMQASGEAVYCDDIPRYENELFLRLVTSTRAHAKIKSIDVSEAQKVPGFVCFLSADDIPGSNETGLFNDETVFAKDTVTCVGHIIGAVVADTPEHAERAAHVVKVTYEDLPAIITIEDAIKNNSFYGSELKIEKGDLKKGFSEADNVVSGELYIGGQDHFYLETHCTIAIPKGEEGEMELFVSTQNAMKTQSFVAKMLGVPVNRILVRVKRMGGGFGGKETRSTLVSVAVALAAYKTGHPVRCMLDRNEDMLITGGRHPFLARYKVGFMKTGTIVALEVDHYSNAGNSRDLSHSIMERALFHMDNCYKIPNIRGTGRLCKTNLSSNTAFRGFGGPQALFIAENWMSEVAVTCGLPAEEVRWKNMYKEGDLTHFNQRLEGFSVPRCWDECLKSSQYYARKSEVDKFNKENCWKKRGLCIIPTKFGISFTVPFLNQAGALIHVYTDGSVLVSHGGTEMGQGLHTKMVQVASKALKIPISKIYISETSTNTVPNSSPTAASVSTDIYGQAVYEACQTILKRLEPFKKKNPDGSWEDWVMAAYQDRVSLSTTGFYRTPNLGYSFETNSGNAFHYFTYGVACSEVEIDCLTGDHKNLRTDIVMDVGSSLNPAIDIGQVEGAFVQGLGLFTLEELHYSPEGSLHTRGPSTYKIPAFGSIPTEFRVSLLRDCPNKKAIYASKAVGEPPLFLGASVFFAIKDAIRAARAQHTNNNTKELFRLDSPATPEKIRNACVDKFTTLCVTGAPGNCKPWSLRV
In words: Uric acid synthetase inhibitory activity of peptides that are part of SEQ ID No. 1. The format is biochemical. To be noted: 15 μM xanthine, 50 mM tris-HCl pH 7.4, 37° C., 10 minutes. Here is the method: Each of the peptides synthesized was added to 1 ml of a 50 mM tris-HCl buffer (pH 7.4) containing 15 μM xanthine as an enzyme substrate to prepare a reaction system. To the reaction system was added 0.1 unit (containing 100 μl of 25 units/25 ml enzyme solution) of xanthine oxidase (XO) of cow's milk (from Wako Pure Chemical), followed by allowing the system to react at 37° C. for 10 minutes. The amount of uric acid produced from xanthine by the action of xanthine oxidase was evaluated in terms of changes in optical density (OD, at 292 nm), from which the enzyme activity was calculated from formula previously given.

The target in series [3] is T2, xanthine oxidase (XO) from butter milk (Bos taurus, UniProt P80457).
T2 construct: xanthine oxidase (XO) from butter milk (from Wako Pure Chemical); purchased Wako Pure Chemical; host or cells: butter milk (natural source)
T2 sequence (P80457 whole entry): as above
In words: Uric acid synthetase inhibitory activity of polypeptides (YINY, YNL, GYL, INF). The format is biochemical. To be noted: 15 μM xanthine, pH 7.4, 37° C., 10 minutes. How it is done: A polypeptide having SEQ ID No. 2 (YINY), which is contained in the enzyme-digested reverse-phase column fraction of the basic fraction of a shark cartilage extract, was synthesized in the same manner as in Example 7 and added to 200 μl of a 50 mM tris-HCl buffer (pH 7.4) containing 15 μM xanthine as an enzyme substrate to prepare a reaction system. To the reaction system was added 0.1 unit (containing 1 μl of 10 units/100 μl enzyme solution) of xanthine oxidase (XO) from butter milk (from Wako Pure Chemical), followed by allowing the system to react at 37° C. for 10 minutes. The amount of uric acid produced from xanthine by the action of xanthine oxidase was evaluated in terms of changes in optical density (OD, at 292 nm), from which the enzyme activity was calculated from formula previously given.
Polypeptides YNL, GYL, and INF which are contained in the enzyme-digested reverse-phase column fraction of the basic fraction of a shark cartilage extract were synthesized in the same manner as in Example 7 and added to 200 μl of a 50 mM tris-HCl buffer (pH 7.4) containing 15 μM xanthine as an enzyme substrate to prepare a reaction system. […] The amount of uric acid produced from xanthine by the action of xanthine oxidase was evaluated in terms of changes in optical density (OD, at 292 nm), from which the enzyme activity was calculated from formula previously given. […]

`N=C(N)NCCC[C@H](N)C(=O)N[C@@H](Cc1ccc(O)cc1)C(=O)N[C@@H](Cc1ccccc1)C(=O)O` [Arg-Tyr-Phe] (H-Arg-Tyr-Phe-OH; N-terminus and C-terminus assumed) returned a Solubility in series [1] (in water (H2O)) of 1 mg/ml in H2O.

Consider `NC(=O)C[C@H](NC(=O)[C@@H](N)CC(=O)O)C(=O)O` [DN] (H-Asp-Asn-OH; N-terminus and C-terminus assumed), for which the “xanthine oxidase activity in system containing the peptide” value in series [2] was “inhibited”. The molecule `CC(C)C[C@H](NC(=O)[C@H](Cc1ccc(O)cc1)NC(=O)CN)C(=O)O` [GYL, Gly-Tyr-Leu] (H-Gly-Tyr-Leu-OH; N-terminus and C-terminus assumed) had a Solubility in series [1] (in water (H2O)) of 1 mg/ml in H2O. Take `CC(C)C[C@H](NC(=O)[C@H](Cc1ccccc1)NC(=O)CN)C(=O)O` [Gly-Phe-Leu] (H-Gly-Phe-Leu-OH; N-terminus and C-terminus assumed): the Solubility in series [1] (in 10% Acetonitrile in water) turned out to be 1 mg/ml in 10%.

Molecule `CC[C@H](C)[C@H](N)C(=O)N[C@@H](CC(N)=O)C(=O)N[C@@H](Cc1ccccc1)C(=O)O` [INF, Ile-Asn-Phe] (H-Ile-Asn-Phe-OH; N-terminus and C-terminus assumed) showed a Solubility in series [1] (in water (H2O)) of 1 mg/ml in H2O. As for `CC[C@H](C)[C@H](N)C(=O)N[C@@H](CC(N)=O)C(=O)N[C@@H](Cc1ccc(O)cc1)C(=O)O` [Ile-Asn-Tyr] (H-Ile-Asn-Tyr-OH; N-terminus and C-terminus assumed), in series [1] (in 5% NH4OH with H2O), the Solubility is 1 mg/ml in 5% NH4OH. The molecule `CC[C@H](C)[C@H](N)C(=O)N[C@@H](Cc1ccc(O)cc1)C(=O)N[C@@H](CC(C)C)C(=O)O` [Ile-Tyr-Leu] (H-Ile-Tyr-Leu-OH; N-terminus and C-terminus assumed) displayed a Solubility in series [1] (in 10% Acetonitrile in water) of 1 mg/ml in 10% in. For the molecule `CC(C)C[C@H](N)C(=O)N[C@@H](CC(=O)O)C(=O)N[C@@H](CC(N)=O)C(=O)N[C@@H](Cc1ccc(O)cc1)C(=O)O` [LDNY, Leu-Asp-Asn-Tyr] (H-LDNY-OH; N-terminus and C-terminus assumed), in series [2], the “xanthine oxidase activity in system containing the peptide” value is “inhibited”. For the same molecule, the Solubility in series [1] (in water (H2O)) was found to be 1 mg/ml in water.

For the molecule `CC(C)C[C@H](N)C(=O)N[C@@H](CC(=O)O)C(=O)O` [LD] (H-Leu-Asp-OH; N-terminus and C-terminus assumed), in series [2], the “xanthine oxidase activity in system containing the peptide” value was “inhibited”. Turning to `CC(C)C[C@H](N)C(=O)N[C@@H](Cc1ccccc1)C(=O)O` [Leu-Phe] (H-Leu-Phe-OH; N-terminus and C-terminus assumed), the Solubility in series [1] (in water (H2O)) is recorded as 1 mg/ml in H2O. Still for that read-out and setting: then `N[C@@H](Cc1ccccc1)C(=O)N[C@@H](Cc1ccc(O)cc1)C(=O)O` [Phe-Tyr] (H-Phe-Tyr-OH; N-terminus and C-terminus assumed), with 1 mg/ml in H2O; and `NC(=O)CC[C@H](NC(=O)[C@H](Cc1c[nH]c2ccccc12)NC(=O)[C@H](CC(N)=O)NC(=O)[C@@H](N)CO)C(=O)O` [Ser-Asn-Trp-Gln] (H-SNWQ-OH; N-terminus and C-terminus assumed), with 1 mg/ml in H2O. In series [1] (in 5% NH4OH with H2O), `CC[C@H](C)[C@H](NC(=O)[C@@H](N)CO)C(=O)N[C@@H](Cc1ccc(O)cc1)C(=O)N[C@@H](CC(=O)O)C(=O)O` [Ser-Ile-Tyr-Asp] (H-SIYD-OH; N-terminus and C-terminus assumed) gave a Solubility of 1 mg/ml in 5% NH4OH. In turn, `CC(C)C[C@H](NC(=O)[C@@H](N)CO)C(=O)O` [Ser-Leu] (H-Ser-Leu-OH; N-terminus and C-terminus assumed) registered a Solubility in series [1] (in water (H2O)) of 1 mg/ml in water. On the same count and under the same terms, under `CC(C)[C@H](N)C(=O)N[C@@H](CCC(=O)O)C(=O)N[C@@H](Cc1ccc(O)cc1)C(=O)N[C@@H](Cc1ccccc1)C(=O)O` [Val-Gln-Tyr-Phe] stands 1 mg/ml in water; under `CC(C)[C@H](N)C(=O)N[C@@H](Cc1ccc(O)cc1)C(=O)N[C@@H](CCC(N)=O)C(=O)O` [Val-Tyr-Gln] (H-Val-Tyr-Gln-OH; N-terminus and C-terminus assumed), 1 mg/ml in H2O.

For `CC[C@H](C)[C@H](NC(=O)[C@@H](N)Cc1ccc(O)cc1)C(=O)N[C@@H](CC(N)=O)C(=O)N[C@@H](Cc1ccc(O)cc1)C(=O)O` [YINY, Try-Ile-Asn-Tyr] (H-YINY-OH; N-terminus and C-terminus assumed), the “xanthine oxidase activity in system containing the polypeptide” value in series [3] is listed as “inhibited”. The molecule also had a Solubility in series [1] (in 5% NH4OH with H2O) of 1 mg/ml in 5% NH4OH. Regarding `CC(C)C[C@H](NC(=O)[C@@H](N)Cc1ccc(O)cc1)C(=O)N[C@@H](CC(=O)O)C(=O)N[C@@H](CC(N)=O)C(=O)O` [YLDN, Tyr-Leu-Asp-Asn] (H-YLDN-OH; N-terminus and C-terminus assumed), the “xanthine oxidase activity in system containing the peptide” value in series [2] is “inhibited”. Moreover, the Solubility in series [1] (in water (H2O)) came out at 1 mg/ml in water. `CC(C)C[C@H](NC(=O)[C@H](CC(N)=O)NC(=O)[C@@H](N)Cc1ccc(O)cc1)C(=O)O` [YNL, Tyr-Asn-Leu] (H-Tyr-Asn-Leu-OH; N-terminus and C-terminus assumed) displayed a Solubility in series [1] (in water (H2O)) of 1 mg/ml in H2O.

As to DFWRY [Asp-Phe-Trp-Arg-Tyr], the Solubility in series [1] (in water (H2O)) worked out at 1 mg/ml in water. Molecule “SPPYWPY [SPPYWPY, Ser-Pro-Pro-Tyr-Trp-Pro-Tyr]” showed a Solubility in series [1] (in water (H2O)) of 1 mg/ml in water. With YLDNY [YLDNY, Tyr-Leu-Asp-Asn-Tyr], in series [1] (in 10% Acetonitrile in water), the Solubility stood at 1 mg/ml in 10%.
